Measured values taken from PubChem BioAssay AID1963833 (Molecular Pharmacology Branch, DTP, NCI, 2024).

Tested on: 883617-216-R-J1-PDC complex spheroid viability
Assay: Anticancer human tumor 883617-216-R-J1-PDC patient-derived bladder carcinoma cell line growth inhibition [POLQ]
Settings: for IC50: curve of first compound; for viability, T/C: stronger effect = lower value
Method in brief: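 Three-cell-type spheroids modelling solid tumor plus stroma served as the readout system; POL inhibitors were tested individually and in combination, concentration ranges set by clinical Cmax where known.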

[1] = second compound 0.0316 µM, first compound 0.0316 µM
[2] = second compound 0.0316 µM, first compound 0.1 µM
[3] = second compound 0.0316 µM, first compound 0.316 µM
[4] = second compound 0.0316 µM, first compound 1 µM
[5] = second compound 0.0316 µM, first compound 3.16 µM
[6] = second compound 0.0316 µM, first compound 10 µM
[7] = second compound 0.1 µM, first compound 0.0316 µM
[8] = second compound 0.1 µM, first compound 0.1 µM
[9] = second compound 0.1 µM, first compound 0.316 µM
[10] = second compound 0.1 µM, first compound 1 µM
[11] = second compound 0.1 µM, first compound 3.16 µM
[12] = second compound 0.1 µM, first compound 10 µM
[13] = second compound 0.316 µM, first compound 0.0316 µM
[14] = second compound 0.316 µM, first compound 0.1 µM
[15] = second compound 0.316 µM, first compound 0.316 µM
[16] = second compound 0.316 µM, first compound 1 µM
[17] = second compound 0.316 µM, first compound 3.16 µM
[18] = second compound 0.316 µM, first compound 10 µM
[19] = second compound 1 µM, first compound 0.0316 µM
[20] = second compound 1 µM, first compound 0.1 µM
[21] = second compound 1 µM, first compound 0.316 µM
[22] = second compound 1 µM, first compound 1 µM
[23] = second compound 1 µM, first compound 3.16 µM
[24] = second compound 1 µM, first compound 10 µM
[25] = second compound 3.16 µM, first compound 0.0316 µM
[26] = second compound 3.16 µM, first compound 0.1 µM
[27] = second compound 3.16 µM, first compound 0.316 µM
[28] = second compound 3.16 µM, first compound 1 µM
[29] = second compound 3.16 µM, first compound 3.16 µM
[30] = second compound 3.16 µM, first compound 10 µM
[31] = second compound 10 µM, first compound 0.0316 µM
[32] = second compound 10 µM, first compound 0.1 µM
[33] = second compound 10 µM, first compound 0.316 µM
[34] = second compound 10 µM, first compound 1 µM
[35] = second compound 10 µM, first compound 3.16 µM
[36] = second compound 10 µM, first compound 10 µM
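Also: spheroids exposed to compounds for seven days before readout.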
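For viability, T/C in this document: 100% = DMSO vehicle control viability.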

C#Cc1c(F)ccc2cc(O)cc(-c3ncc4c(N5CC6CCC(C5)N6)nc(OCC56CCCN5CC(F)C6)nc4c3F)c12 (centres undefined) + Cc1cccc(N(C)C(=O)C2C(O)CCN2c2nc(C)cc(C(F)(F)F)c2C#N)c1
IC50 (second compound 0.0316 µM): > 10 µM
IC50 (second compound 0.1 µM): > 10 µM
IC50 (second compound 0.316 µM): > 10 µM
IC50 (second compound 1 µM): > 10 µM
IC50 (second compound 3.16 µM): > 10 µM
IC50 (second compound 10 µM): > 10 µM
viability, T/C [1]: 98.1%
viability, T/C [2]: 109%
viability, T/C [3]: 97.7%
viability, T/C [4]: 95.1%
viability, T/C [5]: 86.8%
viability, T/C [6]: 70.1%
viability, T/C [7]: 98%
viability, T/C [8]: 104%
viability, T/C [9]: 109%
viability, T/C [10]: 89.8%
viability, T/C [11]: 86.2%
viability, T/C [12]: 81.4%
viability, T/C [13]: 108%
viability, T/C [14]: 101%
viability, T/C [15]: 110%
viability, T/C [16]: 100%
viability, T/C [17]: 80.6%
viability, T/C [18]: 77.6%
viability, T/C [19]: 104%
viability, T/C [20]: 99%
viability, T/C [21]: 106%
viability, T/C [22]: 89.9%
viability, T/C [23]: 86.5%
viability, T/C [24]: 72.2%
viability, T/C [25]: 103%
viability, T/C [26]: 101%
viability, T/C [27]: 97.8%
viability, T/C [28]: 94.5%
viability, T/C [29]: 81.5%
viability, T/C [30]: 78%
viability, T/C [31]: 115%
viability, T/C [32]: 102%
viability, T/C [33]: 104%
viability, T/C [34]: 106%
viability, T/C [35]: 87.7%
viability, T/C [36]: 76.2%

C=CC(=O)N1CCN(c2nc(=O)n(-c3c(C)ccnc3C(C)C)c3nc(-c4c(O)cccc4F)c(F)cc23)C(C)C1 (centres undefined) + Cc1cccc(N(C)C(=O)C2C(O)CCN2c2nc(C)cc(C(F)(F)F)c2C#N)c1
IC50 (second compound 0.0316 µM): > 10 µM
IC50 (second compound 0.1 µM): > 10 µM
IC50 (second compound 0.316 µM): > 10 µM
IC50 (second compound 1 µM): > 10 µM
IC50 (second compound 3.16 µM): > 10 µM
IC50 (second compound 10 µM): > 10 µM
viability, T/C [1]: 72.4%
viability, T/C [2]: 66.9%
viability, T/C [3]: 75.6%
viability, T/C [4]: 84.9%
viability, T/C [5]: 84.2%
viability, T/C [6]: 73.4%
viability, T/C [7]: 74.2%
viability, T/C [8]: 79.3%
viability, T/C [9]: 75.6%
viability, T/C [10]: 80.8%
viability, T/C [11]: 79.2%
viability, T/C [12]: 81.3%
viability, T/C [13]: 80.2%
viability, T/C [14]: 62%
viability, T/C [15]: 72%
viability, T/C [16]: 82.8%
viability, T/C [17]: 85.1%
viability, T/C [18]: 87.2%
viability, T/C [19]: 71.4%
viability, T/C [20]: 66.2%
viability, T/C [21]: 67.3%
viability, T/C [22]: 83.2%
viability, T/C [23]: 90.6%
viability, T/C [24]: 79.9%
viability, T/C [25]: 65%
viability, T/C [26]: 59.8%
viability, T/C [27]: 68.6%
viability, T/C [28]: 76.1%
viability, T/C [29]: 100%
viability, T/C [30]: 78.3%
viability, T/C [31]: 78.3%
viability, T/C [32]: 77.3%
viability, T/C [33]: 84%
viability, T/C [34]: 86.6%
viability, T/C [35]: 101%
viability, T/C [36]: 82.7%
